From patent publication US9802902B2, “Antifungal compound” (priority 2012, dated 2017)

What was measured:
[1] = test system: C. albicans biofilms supported on contact lenses; test: Biofilm susceptibility (in vitro keratitis model treatment); format: cell-based, Candida albicans
Procedure: The contact lenses were washed with PBS and immersed in YM broth overnight before they were punched into smaller pieces of 2 mm in diameter. To grow C. albicans biofilms, the lenses were placed in 6-well tissue culture plates with 4 mL of yeast suspension (10^7 CFU/mL) and incubated for 3 hours at 22° C. The contact lenses were gently washed with PBS to remove non-adherent yeast cells and immersed in YM broth for 48 hours at 22° C. with shaking at 100 rpm. Biofilms were quantified using direct plate counting. The yeast cells on contact lens were detached and dispersed in PBS by ultrasonication for 3 minutes. After making 10-fold dilutions, 20-μL sampling aliquots were plated on solid Lysogeny broth (LB) plate and incubated at 22° C. for 48 hours before the colony number was counted for determination of surviving CFU. Data from triplicate plate counts were averaged.
The C. albicans biofilms supported on contact lenses were transferred to fungicidal agent-containing PBS, and incubated at 22° C. for 24 hours. The biofilms were ultrasonicated for 3 minutes, and then serially diluted in PBS. The viable yeast cells were enumerated as described above.

[2] = test system: C. albicans keratitis; test: Contact lens-associated C. albicans keratitis model in mouse; format: in vivo; conditions: 1000 μg/mL topical eye drops; for corneal counts of C. albicans: 6 eyeballs homogenized; for clinical score (slit lamp, grade 0-4): after treatment, ± standard deviation
From the text: 8-week-old adult C57BL/6 mice (18-22 g) were used for animal studies. All mice eyes were examined for absence of ocular pathology before experiments were initiated. The experimental protocol was approved by the Institutional Animal Care and Use Committee of Biological Resource Centre, Agency for Science, Technology and Research (A*STAR), Singapore.
The black mouse keratitis model was established by employing contact lens biofilm infection, which is described as follows. The mice were anesthetized by ketamine (150 mg/kg) and xylazine ([…]) via intraperitoneal injection (I.P.). Additional topical anesthetic in the form of 0.5% tetracaine hydrochloride eye drops (Bausch & Lomb, Tampa, Fla.) was also administered.
A total of 45 mice were used in this study. A 1-mm filter paper disc moistened with 99% 1-heptanol (Sigma-Aldrich, Lausanne, Switzerland) was placed on the center of the cornea for 40 seconds. The corneal epithelium was traumatically wiped out and the eyes were rinsed with PBS to remove any remaining traces of 1-heptanol. A 2 mm-diameter punch from the contact lense with C. albicans biofilm was then placed on the denuded cornea surface. The contact lenses were kept inside the eyes by closing the eye lids with silk sutures. The C. albicans cells were grown on the eyeball 18 hours after inoculation; eye ulcer with a leathery, tough, raised surface was observed. A disease grading from 0 (no disease) to 4 (severe disease) was established for evaluating treatment efficacy (see Table 1 below). The mice were immune suppressed by subcutaneous injection of cyclophosphamide (Sigma-Aldrich, […]).
To investigate the potential application of these two compounds in fungi keratitis treatment, C. albicans keratitis model was established using mouse. The contact lenses with C. albicans biofilm were kept inside the mice eyes by closing the lids with silk sutures. 18 hours after inoculation, the C. albicans cells were grown on the eyeball. Eye ulcer with a leathery, tough, raised surface was observed. The animals were randomly treated with 5 topical eye drop solutions: saline solution (control), 1000 μg/mL of PIM-45, 1000 μg/mL of IBN-1, 1000 μg/mL of amphotericin B, and 1000 μg/mL of fluconazole. Eye drops (20 μl each) were administered to the mice every 5 minutes during the first hour and every 30 minutes during the next 7 hours. After a pause of 16 hours, eye drops were administered at hourly intervals for another 8 hours. All mice were sacrificed 16 hours after the administration of the last eye drop. The treated eyeballs were collected immediately; three eyeballs from each group were collected for histology, and the remaining 6 eyeballs were homogenized for quantitative fungal recovery study. The fixed eyeballs were embedded in paraffin, sectioned and stained with Grocott's methenamine silver by standard protocol.

Compound	destruction of C. albicans biofilm ([1]; at 250 ppm)	hyphal invasion into cornea (histology) [2]	corneal counts of C. albicans [2]	clinical score (slit lamp, grade 0-4) [2]	effective concentration in killing biofilm-grown yeast cells ([1]; C. albicans biofilm on contact lens, PBS, 22° C., 24 hours)
OC(Cn1cncn1)(Cn1cncn1)c1ccc(F)cc1F [fluconazole]	only slightly destroyed	fungal hyphae extended through the epithelium and into the anterior stroma	5.1 lg CFU/eye	3.5±0.5	
C[C@@H]1[C@H](O)[C@@H](C)/C=C/C=C/C=C/C=C/C=C/C=C/C=C/[C@H](O[C@@H]2O[C@H](C)[C@@H](O)[C@H](N)[C@@H]2O)C[C@@H]2O[C@](O)(C[C@@H](O)C[C@@H](O)[C@H](O)CC[C@@H](O)C[C@@H](O)CC(=O)O[C@H]1C)C[C@H](O)[C@H]2C(=O)O [amphotericin B]		reduced the maximal depth of hyphal invasion into cornea	3.3 lg CFU/eye	2.2±0.4	250 ppm
